The values below come from patent US6204220A, “Substituted 2-oxo-3-alkynoic acids and methods of use thereof” (Rutgers, The State University of New Jersey, priority 1999, dated 2001).

“Also recorded” adds a separate entry of the source. Read-outs that look alike come from different tables or passages of the source.

Assay [1] deals with T1, Pyruvate oxidase from Lactobacillus plantarum (Lactiplantibacillus plantarum, UniProt P37063).
T1 construct: purchased Boehringer Mannheim (a gift, not bought)
T1 sequence (P37063 1-603): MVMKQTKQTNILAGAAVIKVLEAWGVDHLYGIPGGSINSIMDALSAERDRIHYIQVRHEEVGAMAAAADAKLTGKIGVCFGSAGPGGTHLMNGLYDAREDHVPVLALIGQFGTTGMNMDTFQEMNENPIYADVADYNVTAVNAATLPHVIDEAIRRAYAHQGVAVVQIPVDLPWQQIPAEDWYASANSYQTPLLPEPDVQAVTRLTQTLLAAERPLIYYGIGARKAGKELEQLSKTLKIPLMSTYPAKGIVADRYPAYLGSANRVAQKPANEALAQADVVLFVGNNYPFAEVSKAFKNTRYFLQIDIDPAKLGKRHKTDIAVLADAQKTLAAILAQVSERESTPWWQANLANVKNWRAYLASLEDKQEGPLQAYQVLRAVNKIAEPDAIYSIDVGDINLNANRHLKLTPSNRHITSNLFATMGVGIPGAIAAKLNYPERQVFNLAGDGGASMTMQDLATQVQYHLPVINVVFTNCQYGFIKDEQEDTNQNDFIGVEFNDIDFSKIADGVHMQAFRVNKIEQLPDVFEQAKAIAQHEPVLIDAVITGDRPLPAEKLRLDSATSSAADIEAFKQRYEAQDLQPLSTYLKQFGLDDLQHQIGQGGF
The assay is described as follows: Inactivation of pyruvate oxidase (POX). The note with it: for kinact/KI: read-out: kc/Ki,c (converted). In kind it is biochemical. On the procedure: Pyruvate oxidase from Lactobacillus plantarum was a gift from Boehringer Mannheim and was assayed according to the manufacturer's instructions at 25° C. by measuring the rate of 4-quinonimine production from H2 O2, 3,5-dichlorophenolsulfonic acid and 4-aminoantipyrine in the presence of horseradish peroxidase, at 546 nm, using a Cobas-Bio (Roche Diagnostics, Somerville, N.J.) automated centrifugal analyzer. The assay reaction mixture (total vol. 0.25 mL) contained: 40 mM sodium pyruvate; 50 mM potassium phosphate buffer, pH 6.5 with 10% (v/v) glycerol; 6.8 mM 3,5-dichlorophenolsulfonic acid; 0.03% of 4-aminoantipyrine; and 5u/mL of horseradish peroxidase. The reaction was initiated by adding POX.

Assay [2] deals with T2, Pyruvate decarboxylase from Saccharomyces cerevisiae (Saccharomyces cerevisiae, UniProt P06169).
T2 construct: made in house; host or cells: E. coli
T2 sequence (P06169 2-563 limits assumed): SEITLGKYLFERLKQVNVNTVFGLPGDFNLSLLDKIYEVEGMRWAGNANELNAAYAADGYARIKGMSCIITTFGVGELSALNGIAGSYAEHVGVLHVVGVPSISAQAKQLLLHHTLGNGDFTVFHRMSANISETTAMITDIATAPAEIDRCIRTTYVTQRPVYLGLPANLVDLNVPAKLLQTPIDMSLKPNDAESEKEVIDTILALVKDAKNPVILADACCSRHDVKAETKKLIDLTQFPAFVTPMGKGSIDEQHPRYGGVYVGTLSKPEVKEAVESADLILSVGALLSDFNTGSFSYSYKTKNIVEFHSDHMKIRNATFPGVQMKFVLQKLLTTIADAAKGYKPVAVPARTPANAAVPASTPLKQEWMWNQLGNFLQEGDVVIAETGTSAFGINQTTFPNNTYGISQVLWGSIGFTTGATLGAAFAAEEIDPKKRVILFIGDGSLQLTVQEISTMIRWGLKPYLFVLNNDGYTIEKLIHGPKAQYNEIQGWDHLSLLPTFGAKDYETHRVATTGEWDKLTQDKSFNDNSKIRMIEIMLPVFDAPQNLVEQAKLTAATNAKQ
The assay is described as follows: Inactivation of pyruvate decarboxylase (PDC). In kind it is biochemical. On the procedure:
Pyruvate decarboxylase from Saccharomyces cerevisiae was overexpressed in E. coli (Baburina et al., 1994), then purified according to Farrenkopf & Jordan (1992). It was assayed spectrophotometrically by coupling to alcohol dehydrogenase (Holzer et al., 1960).

The next assay deals with PDHc (Escherichia coli, UniProt P0AFG8). The assay is described as follows: Inactivation of 1-lip and 3-lip PDH complexes by 2-oxo-3-alkynoic acids (overall NADH assay). In kind it is biochemical, E. coli. To be noted: for kapp, slower phase of inactivation: PDHc. Further details: made in house; host or cells: E. coli JRG1342 (PDHc null) with Ptac plasmid pGS501 (1-lip) or pGS523 (3-lip). The text has this:
Bacterial strains and plasmids for PDHc. Derivatives of the PDHc null strain, E. coli JRG1342 contained Ptac expression plasmids encoding PDHc with E2 chains bearing three lipoyl domains (3-lip PDHc; pGS523, the wild type parental complex), or a single lipoyl domain in each E2 subunit (1-lip PDHc; pGS501), and variant 1-lip PDH complexes with mutations in the E1 gene leading to C259S (pGS457) and C259N (pGS596) substitutions (Machado et al., 1992; Machado, 1993).
Purification of PDHc. Cultures for purification of 1-lip and 3-lip PDH complexes were grown at 37° C. in LB medium containing glucose (0.2%) and ampicillin (50 μg/mL). The PDH complexes were induced by adding IPTG to 60 μM as described by Russell et al. (1992). Cells were disrupted by ultrasonic treatment after preincubation with lysozyme (0.6 mg/mL final concentration) for 15 min. The PDHc was sedimented by ultracentrifugation (100,000×g for 3 h) and further purified by chromatography on a
Sephacryl S-400 HR column. Fractions containing PDHc were pooled and treated with ammonium sulfate to 70% saturation. The enzyme was dissolved in buffer A (20 mM potassium phosphate, pH 7.8, 2 mM Na2 EDTA, 1 mM PMSF, and 1 mM benzamidine.HCl) then dialyzed against the same buffer. The PDH complexes were stored in buffer A at -20° C.
(§1) Activity and related measurements on PDHc. The overall enzymatic reaction of the PDH complex was assayed using a Varian DMS 300 spectrophotometer or the Cobas Bio (Roche Diagnostics, Somerville, N.J.) automated centrifugal analyzer, monitoring the pyruvate-dependent reduction of NAD^+ at 340 nm. The reaction medium contained in 1 mL (DMS 300) or 0.25 mL (Cobas-Bio) test volume: 0.1 M Tris-HCl, pH 8.0; 1 mM MgCl2; 2 mM sodium pyruvate; 2.5 mM NAD^+; 0.052-0.2 mM coenzyme A; 0.2 mM ThDP; and 2.6 mM DTT at 27° C. The reaction was initiated either by adding enzyme to a mixture of all other components, or by adding CoA.
(§2) One unit of activity is defined as the amount of NADH produced (μmol) per min per mg protein. The activity of resolved E1 was measured after reconstitution with excess E2-E3 subcomplex using the NADH assay for PDHc activity.
(§3) Inactivation of 1-lip and 3-lip PDH complexes and resolved E1 component by 2-oxo-3-alkynoic acids. Intact 1-lip or 3-lip PDH complexes (0.050-0.1 mg) or resolved E1 component (0.05-0.09 mg) were incubated in the dark with 5 mM MgCl2, […] of 2-oxo-3-alkynoic acids in 20 mM KH2 PO4 buffer, pH 7.5 at room temperature in a total volume 0.5 mL. The initial activity (100%) was assayed prior to the addition of 2-oxo-3-alkynoic acids. Samples (50 μL) were withdrawn periodically and diluted into 1 mL of assay solution, containing all components necessary for assay of the overall activity. The activity of untreated enzyme was stable during the time of inactivation.

For assay [3], the target named is T3, PDC from Saccharomyces cerevisiae (Saccharomyces cerevisiae, UniProt P06169).
T3 sequence (P06169 2-563 limits assumed): T2 sequence (P06169 2-563 limits assumed)
To be noted: cited from earlier work; for inhibition of brewer's yeast PDC (in words): Chiu & Jordan, 1994.

The target of another assay is PDHc from E. coli (Escherichia coli, UniProt P0AFG8). The note with it: cited from earlier work.
Assay [4] deals with T4, POX from Lactobacillus plantarum (Lactiplantibacillus plantarum, UniProt P37063).
T4 sequence (P37063 1-603): T1 sequence (P37063 1-603)
To be noted: cited from earlier work.

The target of assay [5] is T5, resolved E1 (Escherichia coli, UniProt P0AFG8).
T5 construct: made in house; host or cells: resolved from PDHc expressed in E. coli JRG1342
As to the kind of experiment: Inactivation of resolved E1 component (activity after reconstitution with E2-E3 subcomplex). The note with it: for effect on catalytic activity of resolved E1 (in words): data not shown. The format is biochemical, E. coli. On the procedure:
Resolution of the E1 component from PDHc. […] PDHc was dialyzed against 50 mM Tris buffer, pH 9.0, containing 0.1 mM benzamidine.HCl, 0.15 M NaCl, 0.1 mM PMSF for 2 h, before applying to a column equilibrated and eluted with the same buffer.
as §1, §2, §3

The target of assay [6] is T5, resolved E1. The note with it: read-out: Ki, reversible inhibition of resolved E1; dichorophenolindophenol assay, Lowe & Perham 1984; cited from earlier work.
The target of assay [7] is T5, resolved E1. To be noted: read-out: Ki E1; calculated from data of Flournoy and Frey (1989); cited from earlier work.
The target in the next assay is T6, E1 (Escherichia coli, UniProt P0AFG8).
T6 construct: made in house; host or cells: resolved from PDHc expressed in E. coli JRG1342
The assay is described as follows: Fluorescence measurements on binding to E1. Further details: species or system E. coli. To be noted: 2 mM. On the procedure:
Fluorescence measurements on the binding of 2-oxo-3-butynoic acid to E1. The fluorescence spectrum of apo-E1 (enzyme having no activity in the absence of ThDP) was measured using the SLM8100 spectrofluorimeter at 25° C. The excitation wavelength was 295 nm and the emission spectrum, presumably due to tryptophan, was recorded in the 300-450 nm range in a 1 mL or 3 mL quartz cuvette. The concentration of apo-E1 was 0.05-0.175 mg/mL in 20 mM KH2 PO4 buffer, pH 7.5. The excitation and emission monochromator slit widths were 4 nm. The V.3.0 software and KaleidaGraph computer program were used for data processing. The emission maximum for tryptophan (λ=335 nm) was determined by fitting the points from the peak using the KaleidaGraph computer program.

A word on the Km: it is the substrate concentration at which the rate is half of its maximum.

`CC#CC(=O)C(=O)O` [2-oxo-3-pentynoic acid, 2-Oxo-3-pentynoic acid]: in [1], the “inhibition / inactivation of POX (in words)” value was “inhibit”. Moreover, the saturation by inhibitor result in [1] (POX) is “no”. For the same compound, the kinact/KI in assay [1] (POX, from linear portion at high inhibitor concentrations (d)) was 0.207 M⁻¹ s⁻¹; in assay [1] (POX, from linear portion at low inhibitor concentrations (c)), 0.0473 M⁻¹ s⁻¹; at PDHc (pH 7.5, read-out: ki/Ki PDHc) it was 25.3 M⁻¹ s⁻¹. Also, the “inhibition / inactivation of PDC (in words)” value in assay [2] is listed as “inhibit”. This compound also gave a Ki at PDHc of 276 µM. For the same compound, the “partial protection by pyruvate on slow phase of inactivation” value on PDHc (1-lip PDHc, 3 mM inhibitor, 5 mM pyruvate, 1 mM ThDP) amounted to 21%. Besides, the “kapp, slower phase of inactivation” value at PDHc (3 mM inhibitor) was determined as 0.048 min⁻¹; on PDHc (4 mM inhibitor), 0.022 min⁻¹. Further, the activity at 3000 µM at PDHc (read-out: residual activity after 26 min of inactivation, 1-lip PDHc, 3 mM inhibitor, absence of pyruvate) came to 14%; on PDHc (read-out: residual activity after 26 min of inactivation, 1-lip PDHc, 3 mM inhibitor, presence of 5 mM pyruvate), 35%.
`O=C(O)C(=O)C=Cc1ccccc1` [2-oxo-4-phenyl-3-butenoic acid, reference compound]: in [3], the “inhibition of brewer's yeast PDC (in words)” value is “inhibited”. Further, the “inhibition / inactivation of PDHc (in words)” value at PDHc was “no effect”.
Consider `O=C(O)C(=O)C#Cc1ccccc1` [2-oxo-4-phenyl-3-butynoic acid, reference compound], for which the “inhibition of brewer's yeast PDC (in words)” value in assay [3] is listed as “inhibited”. Also, the “inhibition / inactivation of PDHc (in words)” value at PDHc is reported as “no effect; also recorded: no inhibition”.
For the compound `CCC(=O)C(=O)O` [2-oxobutanoic acid], on PDHc from E. coli (Bisswanger (1981), read-out: Km (substrate of E. coli PDHc)), the Michaelis-Menten constant (Km) was 3 mM. For the same compound, the “substrate-like activity with POX” value in assay [4] (manufacturer's information) is given as “fails to show substrate-like activity”.
On to `O=C(O)c1cc(SSc2ccc([N+](=O)[O-])c(C(=O)O)c2)ccc1[N+](=O)[O-]` [5,5'-dithiobis-(2-nitrobenzoic acid), reference compound], for which the “effect on catalytic activity of resolved E1 (in words)” value on resolved E1 [5] is “not significantly affected”.
On to `O=C(O)C(=O)/C=C/c1ccc(Cl)cc1` [E-4(4-chlorophenyl)-2-oxo-3-butenoic acid, reference compound], for which the Ki in assay [2] (PDC, read-out: Ki) was 700 µM. Further, in assay [2] (PDC, read-out: first order rate constant of inactivation (ki) (converted)), the kinact was 0.00633 s⁻¹. Also, the kinact/KI in assay [2] (PDC, read-out: ki/Ki (converted)) was 9 M⁻¹ s⁻¹.
For the compound `CC(=O)[PH](=O)O` [acetylphosphinate], the Ki in [3] (PDC from Saccharomyces cerevisiae) is 470 µM; on PDHc from E. coli (PDHc from E. coli), 0.15 µM; in [4] (POX from Lactobacillus plantarum), 50 µM.
With `O=C(O)C(=O)CBr` [bromopyruvate], the Ki on resolved E1 [6] was 90 ± 15 µM.
Take `O=C(O)C(=O)CF` [fluoropyruvate]: the Ki was 33 µM on PDHc from E. coli (calculated from data of Flournoy and Frey (1989), read-out: Ki PDHc); 28 µM at resolved E1 [7].
Take `CSS(C)(=O)=O` [methylmethanethiolsulfonate, reference compound]: the “effect on catalytic activity of resolved E1 (in words)” value on resolved E1 [5] was “not significantly affected”.
Take `O=C(O)c1cc[c]([Hg][Cl])cc1` [p-chloromercuribenzoate, reference compound]: on resolved E1 [5], the “molar excess required to inactivate E1” value worked out at 300 fold molar excess.
Take `CC(=O)C(=O)O` [pyruvate, reference compound]: the “decrease of fluorescence intensity of E1” value on E1 (absence of ThDP) is listed as 21%; at E1 (with ThDP 0.2 mM and MgCl2 1 mM), “about 15%”.
